Results taken from patent US6914045B2, “Glycopeptide antibiotics” (Wyeth Holdings Corporation, priority 2001, dated 2005).
In brackets after ≈: the same amount, converted by molar mass.

How the values were obtained:
Enterococcus sp. = test: in vitro antibacterial evaluation, MIC by broth dilution; type: cell-based; details: broth dilution, 18 hours at 35° C.
Procedure, shortened: (§1)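 Step 1: dilute antibiotic across 64-0.06 μg/mL in Muller-Hinton II […]. Step 2: inoculate at 5×10^5 CFU/mL.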

Staphylococcus sp. = test: as above; type: cell-based; details: broth dilution, 18 hours at 35° C.
Procedure, shortened: as §1

Streptococcus sp. = test: as above; type: cell-based; details: broth dilution, 18 hours at 35° C.
Procedure, shortened: as §1

[1] = test system: Staphylococcus aureus-SMITH (GC 4543); test: acute lethal infection in mice; type: in vivo; details: acute lethal infection, female CD-1 mice, intraperitoneal challenge, intravenous 30 min. after infection, 7 day survival
Procedure, shortened: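 Protocol: bacteria suspended in trypticase soy broth or hog gastric mucin injected ip into female CD-1 mice at a level killing untreated controls in 24-48 hr; compound given iv in saline or 5% dextrose 30 min post-challenge; five mice per dose; ED50 derived from pooled 7 day survival of three runs.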

[2] = anatomic pathology (histopathology of heart and kidney) in mice; type: in vivo; details: CD-1 mice, 20 mg/kg intravenously daily for 9 days, necropsy day 10, microscopic histopathology
Procedure: Samples of tissues from necropsied mice were formalin-fixed, paraffin-embedded, sectioned, stained with hematoxylin and eosin, and examined microscopically. Histopathologic findings were recorded. These findings were subjectively graded on a scale corresponding to slight, mild, moderate, marked and severe as compared to untreated controls.

Escherichia coli = test: in vitro antibacterial evaluation, MIC by broth dilution; type: cell-based; details: 18 hours at 35° C.

Compound: N=C1NCC(C(O)C2NC(=O)C(Cc3ccc(OC4OC(CO)C(OC5OC6COC7(OC6C(O)C5O)C5CC6CC(C5)CC7C6)C(O)C4O)cc3)NC(=O)C(Cc3ccccc3)NC(=O)CNC(=O)C(CO)NC(=O)C(C(O)C3CNC(=N)N3C3OC(CO)C(O)C(O)C3O)NC2=O)N1 (stereo not drawn) [Example 220]
- MIC Enterococcus avium (GC 4558) (Enterococcus sp.): 2 µg/mL (≈ 1.41 µM)
- MIC Enterococcus faecalis (ATCC 29212) (Enterococcus sp.): 2 µg/mL (≈ 1.41 µM)
- MIC Enterococcus faecalis (GC 2242) (Enterococcus sp.): 1 µg/mL (≈ 0.707 µM)
- MIC Enterococcus faecalis (GC 2691) (Enterococcus sp.): 2 µg/mL (≈ 1.41 µM)
- MIC Enterococcus faecalis (GC 3059) (Enterococcus sp.): 2 µg/mL (≈ 1.41 µM)
- MIC Enterococcus faecalis (GC 4552) (Enterococcus sp.): 2 µg/mL (≈ 1.41 µM)
- MIC Enterococcus faecalis (GC 4553) (Enterococcus sp.): 1 µg/mL (≈ 0.707 µM)
- MIC Enterococcus faecalis (GC 4554) (Enterococcus sp.): 2 µg/mL (≈ 1.41 µM)
- MIC Enterococcus faecalis (GC 6189) (Enterococcus sp.): 1 µg/mL (≈ 0.707 µM)
- MIC Enterococcus faecium (GC 2243) (Enterococcus sp.): 1 µg/mL (≈ 0.707 µM)
- MIC Enterococcus faecium (GC 4556) (Enterococcus sp.): 1 µg/mL (≈ 0.707 µM)
- MIC Enterococcus faecium (GC 4557) (Enterococcus sp.): 1 µg/mL (≈ 0.707 µM)
- MIC Enterococcus faecalis (ATCC 29212) (Enterococcus sp.; inoculum 5×10^5 CFU/mL, strain ATCC 29212): 2 µg/mL (≈ 1.41 µM)
- MIC Enterococcus faecalis (GC 2242) (Enterococcus sp.; inoculum 5×10^5 CFU/mL, strain GC 2242): 1 µg/mL (≈ 0.707 µM)
- MIC Enterococcus faecium (GC 2243) (Enterococcus sp.; inoculum 5×10^5 CFU/mL, strain GC 2243): 1 µg/mL (≈ 0.707 µM)
- MIC Enterococcus faecalis (GC 2691) (Enterococcus sp.; inoculum 5×10^5 CFU/mL, strain GC 2691): 2 µg/mL (≈ 1.41 µM)
- MIC Enterococcus faecalis (GC 3059) (Enterococcus sp.; inoculum 5×10^5 CFU/mL, strain GC 3059): 2 µg/mL (≈ 1.41 µM)
- MIC Enterococcus faecalis (GC 4552) (Enterococcus sp.; inoculum 5×10^5 CFU/mL, strain GC 4552): 2 µg/mL (≈ 1.41 µM)
- MIC Enterococcus faecalis (GC 4553) (Enterococcus sp.; inoculum 5×10^5 CFU/mL, strain GC 4553): 1 µg/mL (≈ 0.707 µM)
- MIC Enterococcus faecalis (GC 4554) (Enterococcus sp.; inoculum 5×10^5 CFU/mL, strain GC 4554): 2 µg/mL (≈ 1.41 µM)
- MIC Enterococcus faecium (GC 4556) (Enterococcus sp.; inoculum 5×10^5 CFU/mL, strain GC 4556): 1 µg/mL (≈ 0.707 µM)
- MIC Enterococcus faecium (GC 4557) (Enterococcus sp.; inoculum 5×10^5 CFU/mL, strain GC 4557): 1 µg/mL (≈ 0.707 µM)
- MIC Enterococcus avium (GC 4558) (Enterococcus sp.; inoculum 5×10^5 CFU/mL, strain GC 4558): 2 µg/mL (≈ 1.41 µM)
- MIC Enterococcus faecalis (GC 6189) (Enterococcus sp.; inoculum 5×10^5 CFU/mL, strain GC 6189): 1 µg/mL (≈ 0.707 µM)
- MIC Staphylococcus aureus (ATCC 29213) (Staphylococcus sp.; strain ATCC 29213): 0.5 µg/mL (≈ 0.354 µM)
- MIC Staphylococcus aureus (GC 1131) (Staphylococcus sp.; strain GC 1131): 1 µg/mL (≈ 0.707 µM)
- MIC Staphylococcus aureus (GC 3051) (Staphylococcus sp.; strain GC 3051): 1 µg/mL (≈ 0.707 µM)
- MIC Staphylococcus aureus (GC 3053) (Staphylococcus sp.; strain GC 3053): 1 µg/mL (≈ 0.707 µM)
- MIC Staphylococcus aureus (GC 4541) (Staphylococcus sp.; strain GC 4541): 1 µg/mL (≈ 0.707 µM)
- MIC Staphylococcus aureus (GC 4542) (Staphylococcus sp.; strain GC 4542): 0.5 µg/mL (≈ 0.354 µM)
- MIC Staphylococcus aureus-SMITH (GC 4543) (Staphylococcus sp.; strain GC 4543): 1 µg/mL (≈ 0.707 µM)
- MIC Staphylococcus aureus (GC 4544) (Staphylococcus sp.; strain GC 4544): 1 µg/mL (≈ 0.707 µM)
- MIC Staphylococcus aureus (GC 4545) (Staphylococcus sp.; strain GC 4545): 0.5 µg/mL (≈ 0.354 µM)
- MIC Staphylococcus haemolyticus (GC 4546) (Staphylococcus sp.; strain GC 4546): 0.25 µg/mL (≈ 0.177 µM)
- MIC Coagulase Negative Staphylococcus (GC 4547) (Staphylococcus sp.; strain GC 4547): 0.5 µg/mL (≈ 0.354 µM)
- MIC Coagulase Negative Staphylococcus (GC 4548) (Staphylococcus sp.; strain GC 4548): 0.25 µg/mL (≈ 0.177 µM)
- MIC Coagulase Negative Staphylococcus (GC 4549) (Staphylococcus sp.; strain GC 4549): 0.25 µg/mL (≈ 0.177 µM)
- MIC Coagulase Negative Staphylococcus (GC 4551) (Staphylococcus sp.; strain GC 4551): 0.5 µg/mL (≈ 0.354 µM)
- MIC Streptococcus agalactiae (GC 4564) (Streptococcus sp.): <0.06 µg/mL
- MIC Streptococcus pneumoniae (ATCC 6301) (Streptococcus sp.): <0.06 µg/mL
- MIC Streptococcus pneumoniae (GC 1894) (Streptococcus sp.): <0.06 µg/mL
- MIC Streptococcus pneumoniae (GC 4565) (Streptococcus sp.): <0.06 µg/mL
- MIC Streptococcus pyogenes (GC 4563) (Streptococcus sp.): <0.06 µg/mL
- MIC Streptococcus pneumoniae (ATCC 6301) (Streptococcus sp.; inoculum 5×10^5 CFU/mL, strain ATCC 6301): <0.06 µg/mL
- MIC Streptococcus pneumoniae (GC 1894) (Streptococcus sp.; inoculum 5×10^5 CFU/mL, strain GC 1894): <0.06 µg/mL
- MIC Streptococcus pyogenes (GC 4563) (Streptococcus sp.; inoculum 5×10^5 CFU/mL, strain GC 4563): <0.06 µg/mL
- MIC Streptococcus agalactiae (GC 4564) (Streptococcus sp.; inoculum 5×10^5 CFU/mL, strain GC 4564): <0.06 µg/mL
- MIC Streptococcus pneumoniae (GC 4565) (Streptococcus sp.; inoculum 5×10^5 CFU/mL, strain GC 4565): <0.06 µg/mL
- median effective dose (ED50), Staphylococcus aureus-SMITH (GC 4543) [1]: 0.19 mg/kg
- Anatomical Pathology (Day 10), Heart [2]: 0
- Anatomical Pathology (Day 10), Kidney [2]: +++
- MIC Escherichia coli (ATCC 25922) (Escherichia coli): 32 µg/mL (≈ 22.6 µM)
- MIC Escherichia coli (GC 4559) (Escherichia coli): 16 µg/mL (≈ 11.3 µM)
- MIC Escherichia coli (GC 4560) (Escherichia coli): 0.5 µg/mL (≈ 0.354 µM)
